In patent US6472369B1, “Anticancer compounds and methods” (The Regents of the University of Michigan, priority 1996, dated 2002):

Tests used:
[1] = test system: metastatic SUM-52 PE breast cancer cells; assay: SU-ECM invasion assay, SUM-52 PE breast cancer cells; assay type: cell-based, human; details: SUM-52 PE; for inhibition of PHSRN-induced invasion of SU-ECM: serum free medium, 100 ng per ml PHSRN, FIG. 5B; for inhibition of serum-induced invasion of SU-ECM: FIG. 5A
Procedure: Human breast carcinoma cell lines SUM 52 PE and SUM 44 PE were originally cultured from the pleural effusions of patients with metastatic breast cancer; and SUM 102 was cultured from a primary, microinvasive breast carcinoma (Ethier, S. P., Mahack, M. L., Gullick, W. J., Frank, T. S., and Weber, B. L. Differential isolation of normal luminal mammary epithelial cells and breast cancer cells from primary and metastatic sites using selective media. Cancer Res. 53: 627-635).
Adult Strongylocentrotus purpuratus sea urchins were obtained from Pacific BioMarine, and their embryos were cultured to the early pluteus stage in artificial sea water at 15° C. SU-ECM were prepared from them by treatment with nonionic detergent and strerilized by dilution in the appropriate media.
Cells were harvested by rinsing in Hanks' balanced salt solution, followed by brief treatment with 0.25% trypsin, 0.02% EDTA, and pelleting and resuspension in the appropriate medium with or without 5% FCS at a density of about 50,000 cells per ml. When appropriate, purified bovine plasma fibronectin (Sigma), purified 120 kDa chymotryptic fragment (Gibco BRL), PHSRN (SEQ ID NO:1) or PHSCN (SEQ ID NO:86) peptides (synthesized at the Biomedical Research Core Facilities of the University of Michigan), or GRGDSP (SEQ ID NO:83) or GRGESP (SEQ ID NO:84) peptides (Gibco BRL) were added to the resuspended cells prior to placement of the cells on SU-ECM. In each well of a plate used for an invasion assay, SU-ECM were placed in 0.5 ml of the appropriate medium, and 0.5 ml of the resuspended cells dropped on their exterior surfaces. Invasion assays were incubated 1 to 16 hours prior to assay. If some circumstances, invasion assays were fixed in phosphate-buffered saline (PBS) with 2% formaldehyde for 5 minutes at room temperature, then rinsed into PBS.
Invasion assays were coded and scored blindly by microscopic examination under phase contrast at 200- and 400-fold magnification. Each cell contacting an SU-ECM was scored for its position relative to the exterior or interior surfaces. A cell was judged to have invaded if it was located on an interior surface below the focal plane passing through the upper surface of the SU-ECM, but above the focal plane passing through its lower surface. The minimum viability of the cells in each assay was always ascertained at the time of assay by determining the fraction of spread, adherent cells on the bottom of each well scored.
An invasion frequency is defined as the fraction of cells in contact with basement membranes which were located in their interiors at the time of assay. Thus, an invasion frequency of 1 denotes invasion by 100% of the cells in contact with basement membranes. Invasion frequencies were determined multiple times for each cell type assayed. For each type of cell assayed the mean and standard deviation of the invasion frequencies were calculated.
The method of Example 4 is employed, with the addition of varying concentrations of the PHSCN (SEQ ID NO:86) peptide.
Thus, the procedure in Example 4 provides a method for determining the inhibitory potential of the PHSCN (SEQ ID NO:86) peptide by comparing the number of cell invasions in the presence of the PHSCN (SEQ ID NO:86) peptide, with the number of cell invasions in the absence of the PHSCN (SEQ ID NO:86) peptide.

MatLyLu (MLL) tumors [2] = assay: MLL prostate tumor growth and metastasis in rats, treatment begun with cell injection (Example 12); assay type: in vivo, Copenhagen rats
Procedure: In the first part of this example, four Copenhagen rats were injected with 500,000 MatLyLu (MLL) cells subcutaneously in the thigh. Two of these rats also received 1 mg of the PHSCN (SEQ ID NO:86) peptide along with the injected MLL cells, and thereafter received 1 mg of the PHSCN (SEQ ID NO:86) peptide injected in their tail vein three time per week for two weeks. The other two injected rats were left untreated. Tumor sizes were measured with calipers on day 14, and the tumors in the untreated rats were removed. […] It is possible that the ability of the PHSCN (SEQ ID NO:86) peptide to slow tumor growth is due to its inhibition of tumor invasion by normal endothelial cells, an anti-angiogenic effect.
Two weeks after the size of the tumors were measured, the rats were sacrificed and the mean number of lung metastases was determined at 10-fold magnification. The mean number of lung metastases in the untreated mice (MLL only) was nearly 35 in spite of the fact that the initial prostate tumors had been removed when their size was measured. The mean number of lung metastases in the treated mice (MLL +PHSCN (SEQ ID NO:86)) was less than 5, even though the initial prostate tumors were never removed because they were too small. […] In this manner, the PHSCN (SEQ ID NO:86) peptide provides effective in vivo therapy for cancer by preventing the lethal effects of tumor cell growth and metastasis.

MatLyLu (MLL) tumors [3] = assay: MLL prostate tumor growth and metastasis in rats, treatment begun after 24 hours (Example 13); assay type: in vivo, Copenhagen rats
Procedure: In the first part of this example, 20 Copenhagen rats were injected with 500,000 MatLyuLu (MLL) cells subcutaneously in the thigh. To more closely approximate a real clinical situation, PHSCN (SEQ ID NO:86) peptide treatment of 10 of these rats was initiated after 24 hours, instead of immediately. The 10 treated rats (MLL/PHSCN (SEQ ID NO:86)) received a total of 5 i.v. injections of 1 mg of the PHSCN (SEQ ID NO:86) peptide through the tail vein over two weeks. Tumor sizes were measured with calipers on day 14, and the tumors in the untreated rats were removed. Since the injected tumors in the MLL/PHSCN (SEQ ID NO:86) rats were still small, they were retained in the rats for another 7 to 9 days following the last PHSCN (SEQ ID NO:86) injection. At this time, their sizes were all greater than 2 cm, and they were also removed.
In the second part of this example, the MLL/PHSCN (SEQ ID NO:86) rats received 2 more i.v. doses of the PHSCN (SEQ ID NO:86) peptide prior to sacrifice. Ten days after the sizes of the injected primary tumors were determined, all the rats in the two groups (MLL only and MLL/PHSCN (SEQ ID NO:86)) were sacrificed, and the number of lung metastases was determined at 7.5-fold magnification.
The 20 rats described in parts one and two of this example were also examined for metastatic tissues in […]. All of these metastases were dissected and weighed. FIG. 10C plots the mean masses of intraperitoneal metastases (grams) for the two groups of 10 rats. […] This may be due to the anti-angiogenic effect of the PHSCN (SEQ ID NO:86) peptide, as described in part one of this example. In this manner, the PHSCN (SEQ ID NO:86) peptide maybe an effective anti-metastatic, growth-inhibiting chemotherapeutic agent for use in the treatment of cancer.

Pro-His-Ser-Cys-Asn (PHSCN) was tested, and the “inhibition of PHSRN-induced invasion of SU-ECM” value ([1]; higher concentrations) was “almost complete inhibition”, the “inhibition of PHSRN-induced invasion of SU-ECM” value ([1]; low concentrations) was “substantial inhibitory affect” and the “inhibition of serum-induced invasion of SU-ECM” value ([1]; relatively high PHSCN concentrations) was “complete inhibition”. The “inhibition of serum-induced invasion of SU-ECM” value ([1]; relatively low PHSCN concentrations) was “substantial inhibitory affect”, the “growth of injected MLL tumors (tumor size, calipers)” value (MatLyLu (MLL) tumors [2]; day 14, 1 mg with cells, then 1 mg tail vein three times per week for two weeks, FIG. 9A) was “significantly slows the growth” and the “mean number of lung metastases” value (MatLyLu (MLL) tumors [2]; two weeks after tumor measurement, 10-fold magnification, primary tumors not removed, FIG. 9B) was “less than 5”. For the same substance, the tumor size (MatLyLu (MLL) tumors [3]; 7 to 9 days following the last PHSCN injection) was “greater than 2 cm”, the “mean numbers of lung metastases” value (MatLyLu (MLL) tumors [3]; compared to untreated rats, 7.5-fold magnification, ten days after tumor sizing, FIG. 10B) was “significant reduction” and the “mean masses of intraperitoneal (lymphatic) metastases” value (MatLyLu (MLL) tumors [3]; compared to untreated rats, FIG. 10C) was “significant reduction”. For the same substance, the “growth of rat prostate cancer tumors (tumor size, calipers)” value (MatLyLu (MLL) tumors [3]; day 14, 5 i.v. injections of 1 mg over two weeks, started after 24 hours, FIG. 10A) was “substantially slows the growth”.
